IC50 data for 13 compounds are collected here from patent US20260022142A1, “MACROCYCLIC IMMUNOMODULATORS” (Bristol-Myers Squibb Company, priority 2022, published 2026).

Bridge positions count the residues as written; N and C are the ends. Square brackets hold non-standard residues; d marks the D form. Peptide text beside a SMILES is read from it. * marks the point of attachment. ξ: configuration not given here. Bip = N[C@@H](Cc1ccc(-c2ccccc2)cc1)C(=O)O; Phe(3-Me) = Cc1cccc(C[C@H](N)C(=O)O)c1; Cha = N[C@@H](CC1CCCCC1)C(=O)O; Cit = NC(=O)NCCC[C@H](N)C(=O)O; dNMeN = CN[C@H](CC(N)=O)C(=O)O; Thr(3ξ) = CC(O)[C@H](N)C(=O)O; Dap(Me) = CNC[C@H](N)C(=O)O; Carboxymethyl = O=C(O)C*; Orn = NCCC[C@H](N)C(=O)O; Aun = NCCCCCCCCCCC(=O)O; Dab = NCC[C@H](N)C(=O)O; AEEA = NCCOCCOCC(=O)O; ξDab = NCCC(N)C(=O)O

The target of this test is T1, PD-1/PD-L1 interaction (PE-labeled human PD-L1-Ig binding to Jurkat cell line over-expressing human PD-1) (Homo sapiens, UniProt Q15116).
T1 construct: expressed in transfected cells; host or cells: Jurkat
T1 sequence (Q15116 25-288): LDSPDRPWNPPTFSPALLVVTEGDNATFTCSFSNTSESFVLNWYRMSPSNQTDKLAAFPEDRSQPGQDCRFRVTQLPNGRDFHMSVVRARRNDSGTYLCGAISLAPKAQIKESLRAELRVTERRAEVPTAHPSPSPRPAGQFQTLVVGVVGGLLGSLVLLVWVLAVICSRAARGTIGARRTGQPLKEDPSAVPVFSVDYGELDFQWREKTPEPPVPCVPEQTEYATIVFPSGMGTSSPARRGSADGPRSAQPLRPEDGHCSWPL
The test is described as follows: Jurkat-PD-1 Cell Binding High-Content Screening Assay (CBA). The class given is cell-based. Conditions: Jurkat cell line over-expressing human PD-1; PE-labeled PD-L1-Ig 20 nM final; read-out: Jurkat hPD1-PDL1 IC50. In outline:
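Human PD-L1-Ig carrying a covalent PE label on its Ig tag serves as the probe, applied at 20 nM final to compound-treated (2 h, 37° C) Jurkat-hPD-1 cells in medium with 10% fetal calf serum. After one hour, fixation and nuclear staining precede high-content image analysis.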
For orientation: IC50 means the concentration that gives 50% inhibition. With `CC(=O)NCCCC[C@@H]1NC(=O)[C@H](C(C)C)NC(=O)[C@H](CC2CCCCC2)NC(=O)[C@H](CCN)NC(=O)[C@@H](CC(C)C)NC(=O)[C@H](CCN)NC(=O)[C@H](C(C)C)NC(=O)[C@H](Cc2ccc(-c3ccccc3)cc2)NC(=O)[C@H](C(C)C)NC(=O)[C@H](Cc2cccc(C)c2)NC(=O)[C@H](CC(=O)O)NC(=O)[C@H](Cc2ccc(OCC(=O)O)cc2)NC(=O)[C@H](C(C)O)NC(=O)CSC[C@@H](C(=O)NCCOCCOCC(=O)NCCCCCCCCCCC(=O)O)NC1=O` (stereo partly drawn) [Compound 3443] ({CH2CO}-[Thr(3ξ)]Y(Carboxymethyl)D[Phe(3-Me)]V[Bip]V[Dab][dL][Dab][Cha]VK(Ac)C[AEEA][Aun]-OH; thioether N-14), the IC50 came to 12 nM.

Consider `Cc1cccc(C[C@@H]2NC(=O)[C@H](CC(=O)O)NC(=O)[C@H](Cc3ccc(OCC(=O)O)cc3)NC(=O)[C@H](C(C)O)NC(=O)CSC[C@@H](C(=O)N[C@H](CC(N)=O)C(=O)NCCCCCCCCCCC(=O)O)NC(=O)[C@H](C(C)O)NC(=O)[C@H](C(C)C)NC(=O)[C@H](CC3CCCCC3)NC(=O)[C@H](CCN)NC(=O)[C@@H](CC(C)C)NC(=O)[C@H](CCCN)NC(=O)[C@H](CCCNC(N)=O)NC(=O)[C@H](Cc3ccc(-c4ccccc4)cc3)NC(=O)[C@H](C(C)C)NC2=O)c1` (stereo partly drawn) [Compound 3444] ({CH2CO}-[Thr(3ξ)]Y(Carboxymethyl)D[Phe(3-Me)]V[Bip][Cit][Orn][dL][Dab][Cha]V[Thr(3ξ)]C[dN][Aun]-OH; thioether N-14), for which the IC50 amounted to 13.6 nM.

For `CC(=O)NCCCC[C@@H]1NC(=O)[C@H](C(C)C)NC(=O)[C@H](CC2CCCCC2)NC(=O)[C@H](CCN)NC(=O)[C@@H](CC(C)C)NC(=O)[C@H](CCCN)NC(=O)[C@H](C(C)C)NC(=O)[C@H](Cc2ccc(-c3ccccc3)cc2)NC(=O)[C@H](C(C)C)NC(=O)[C@H](Cc2cccc(C)c2)NC(=O)[C@H](CC(=O)O)NC(=O)[C@H](Cc2ccc(OCC(=O)O)cc2)NC(=O)[C@H](C(C)O)NC(=O)CSC[C@@H](C(=O)N(C)[C@H](CC(N)=O)C(=O)NCCCCCCCCCCC(=O)O)NC1=O` (stereo partly drawn) [Compound 3445] ({CH2CO}-[Thr(3ξ)]Y(Carboxymethyl)D[Phe(3-Me)]V[Bip]V[Orn][dL][Dab][Cha]VK(Ac)C[dNMeN][Aun]-OH; thioether N-14), the IC50 worked out at 160 nM.

With `CC(C)C[C@H]1NC(=O)[C@H](CCCN)NC(=O)[C@H](CCCNC(N)=O)NC(=O)[C@H](Cc2ccc(-c3ccccc3)cc2)NC(=O)[C@H](C(C)C)NC(=O)[C@H](Cc2c[nH]c3ccccc23)NC(=O)[C@H](CC(=O)O)NC(=O)[C@H](Cc2ccc(OCC(=O)O)cc2)NC(=O)[C@H](C(C)O)NC(=O)CSC[C@@H](C(=O)N[C@H](CCC(N)=O)C(=O)NCCCCCCCCCCC(=O)O)NC(=O)[C@H](C(C)O)NC(=O)[C@H](C(C)C)NC(=O)[C@H](CC2CCCCC2)NC(=O)[C@H](CCN)NC1=O` (stereo partly drawn) [Compound 3446] ({CH2CO}-[Thr(3ξ)]Y(Carboxymethyl)DWV[Bip][Cit][Orn][dL][Dab][Cha]V[Thr(3ξ)]C[dQ][Aun]-OH; thioether N-14), the IC50 amounted to 65.2 nM.

As to `CC(=O)NCCCC[C@@H]1NC(=O)[C@H](C(C)C)NC(=O)[C@H](CC2CCCCC2)NC(=O)[C@H](CCN)NC(=O)[C@@H](CC(C)C)NC(=O)[C@H](CCCN)NC(=O)[C@H](C(C)C)NC(=O)[C@H](Cc2ccc(-c3ccccc3)cc2)NC(=O)[C@H](C(C)C)NC(=O)[C@H](Cc2cccc(C)c2)NC(=O)[C@H](CC(=O)O)NC(=O)[C@H](Cc2ccc(OCC(=O)O)cc2)NC(=O)[C@H](C(C)O)NC(=O)CSC[C@@H](C(=O)N[C@H](CCC(N)=O)C(=O)NCCCCCCCCCCC(=O)O)NC1=O` (stereo partly drawn) [Compound 3447] ({CH2CO}-[Thr(3ξ)]Y(Carboxymethyl)D[Phe(3-Me)]V[Bip]V[Orn][dL][Dab][Cha]VK(Ac)C[dQ][Aun]-OH; thioether N-14), the IC50 is 10.5 nM.

Regarding `Cc1cccc(C[C@@H]2NC(=O)[C@H](CC(=O)O)NC(=O)[C@H](Cc3ccc(OCC(=O)O)cc3)NC(=O)[C@H](C(C)O)NC(=O)CSC[C@@H](C(=O)NC(CCN)C(=O)NCCCCCCCCCCC(=O)O)NC(=O)[C@H](C(C)O)NC(=O)[C@H](C(C)C)NC(=O)[C@H](CC3CCCCC3)NC(=O)[C@H](CCN)NC(=O)[C@@H](CC(C)C)NC(=O)[C@H](CCCN)NC(=O)[C@H](CCC(=O)O)NC(=O)[C@H](Cc3ccc(-c4ccccc4)cc3)NC(=O)[C@H](CCC(=O)O)NC2=O)c1` (stereo partly drawn) [Compound 3448] ({CH2CO}-[Thr(3ξ)]Y(Carboxymethyl)D[Phe(3-Me)]E[Bip]E[Orn][dL][Dab][Cha]V[Thr(3ξ)]C[ξDab][Aun]-OH; thioether N-14), the IC50 was 91 nM.

Take `Cc1cccc(C[C@@H]2NC(=O)[C@H](CC(=O)O)NC(=O)[C@H](Cc3ccc(OCC(=O)O)cc3)NC(=O)[C@H](CCCNC(=N)N)NC(=O)CSC[C@@H](C(=O)N[C@@H](CCN)C(=O)NCCCCCCCCCCC(=O)O)NC(=O)[C@H](C(C)O)NC(=O)[C@H](C(C)C)NC(=O)[C@H](CC3CCCCC3)NC(=O)[C@H](CCN)NC(=O)[C@@H](CC(C)C)NC(=O)[C@H](CCCNC(N)=O)NC(=O)[C@H](Cc3ccc(OCC(=O)O)cc3)NC(=O)[C@H](Cc3ccc(-c4ccccc4)cc3)NC(=O)[C@H](C(C)C)NC2=O)c1` (stereo partly drawn) [Compound 3450] ({CH2CO}-RY(Carboxymethyl)D[Phe(3-Me)]V[Bip]Y(Carboxymethyl)[Cit][dL][Dab][Cha]V[Thr(3ξ)]C[Dab][Aun]-OH; thioether N-14): the IC50 was determined as 18.3 nM.

For the compound `Cc1cccc(C[C@@H]2NC(=O)[C@H](CC(=O)O)NC(=O)[C@H](Cc3ccc(OCC(=O)O)cc3)NC(=O)[C@H](C(C)O)NC(=O)CSC[C@@H](C(=O)N[C@@H](CCN)C(=O)NCCCCCCCCCCC(=O)O)NC(=O)[C@H](C(C)O)NC(=O)[C@H](C(C)C)NC(=O)[C@H](CC3CCCCC3)NC(=O)[C@H](CCN)NC(=O)[C@@H](CC(C)C)NC(=O)[C@H](CCCNC(N)=O)NC(=O)[C@H](Cc3ccc(OCC(=O)O)cc3)NC(=O)[C@H](Cc3ccc(-c4ccccc4)cc3)NC(=O)[C@H](C(C)C)NC2=O)c1` (stereo partly drawn) [Compound 3451] ({CH2CO}-[Thr(3ξ)]Y(Carboxymethyl)D[Phe(3-Me)]V[Bip]Y(Carboxymethyl)[Cit][dL][Dab][Cha]V[Thr(3ξ)]C[Dab][Aun]-OH; thioether N-14), the IC50 is 18.4 nM.

As to `Cc1cccc(C[C@@H]2NC(=O)[C@H](CC(=O)O)NC(=O)[C@H](Cc3ccc(OCC(=O)O)cc3)NC(=O)[C@H](CCCNC(=N)N)NC(=O)CSC[C@@H](C(=O)N[C@H](CC(N)=O)C(=O)NCCCCCCCCCCC(=O)O)NC(=O)[C@H](C(C)O)NC(=O)[C@H](C(C)C)NC(=O)[C@H](CC3CCCCC3)NC(=O)[C@H](CCN)NC(=O)[C@@H](CC(C)C)NC(=O)[C@H](CCCN)NC(=O)[C@H](Cc3ccc(O)cc3)NC(=O)[C@H](Cc3ccc(-c4ccccc4)cc3)NC(=O)[C@H](C(C)C)NC2=O)c1` (stereo partly drawn) [Compound 3452] ({CH2CO}-RY(Carboxymethyl)D[Phe(3-Me)]V[Bip]Y[Orn][dL][Dab][Cha]V[Thr(3ξ)]C[dN][Aun]-OH; thioether N-14), the IC50 came to 25.8 nM.

On to `Cc1cccc(C[C@@H]2NC(=O)[C@H](CC(=O)O)NC(=O)[C@H](Cc3ccc(OCC(=O)O)cc3)NC(=O)[C@H](Cc3c[nH]cn3)NC(=O)CSC[C@@H](C(=O)N[C@@H](CCN)C(=O)NCCCCCCCCCCC(=O)O)NC(=O)[C@H](C(C)O)NC(=O)[C@H](C(C)C)NC(=O)[C@H](CC3CCCCC3)NC(=O)[C@H](CCN)NC(=O)[C@@H](CC(C)C)NC(=O)[C@H](CCCN)NC(=O)[C@H](CCCNC(N)=O)NC(=O)[C@H](Cc3ccc(-c4ccccc4)cc3)NC(=O)[C@H](C(C)C)NC2=O)c1` (stereo partly drawn) [Compound 3453] ({CH2CO}-HY(Carboxymethyl)D[Phe(3-Me)]V[Bip][Cit][Orn][dL][Dab][Cha]V[Thr(3ξ)]C[Dab][Aun]-OH; thioether N-14), for which the IC50 was determined as 19.9 nM.

As for `CNC[C@@H]1NC(=O)CSC[C@@H](C(=O)N[C@@H](CCN)C(=O)NCCCCCCCCCCC(=O)O)NC(=O)[C@H](C(C)O)NC(=O)[C@H](C(C)C)NC(=O)[C@H](CC2CCCCC2)NC(=O)[C@H](CCN)NC(=O)[C@@H](CC(C)C)NC(=O)[C@H](CCCN)NC(=O)[C@H](CCCNC(N)=O)NC(=O)[C@H](Cc2ccc(-c3ccccc3)cc2)NC(=O)[C@H](C(C)C)NC(=O)[C@H](Cc2cccc(C)c2)NC(=O)[C@H](CC(=O)O)NC(=O)[C@H](Cc2ccc(OCC(=O)O)cc2)NC1=O` (stereo partly drawn) [Compound 3454] ({CH2CO}-[Dap(Me)]Y(Carboxymethyl)D[Phe(3-Me)]V[Bip][Cit][Orn][dL][Dab][Cha]V[Thr(3ξ)]C[Dab][Aun]-OH; thioether N-14), the half-inhibitory concentration (IC50) stood at 16.2 nM.

Consider `Cc1cccc(C[C@@H]2NC(=O)[C@H](CC(=O)O)NC(=O)[C@H](Cc3ccc(OCC(=O)O)cc3)NC(=O)[C@H](CC(N)=O)NC(=O)CSC[C@@H](C(=O)N[C@@H](CCN)C(=O)NCCCCCCCCCCC(=O)O)NC(=O)[C@H](C(C)O)NC(=O)[C@H](C(C)C)NC(=O)[C@H](CC3CCCCC3)NC(=O)[C@H](CCN)NC(=O)[C@@H](CC(C)C)NC(=O)[C@H](CCCN)NC(=O)[C@H](CCCNC(N)=O)NC(=O)[C@H](Cc3ccc(-c4ccccc4)cc3)NC(=O)[C@H](C(C)C)NC2=O)c1` (stereo partly drawn) [Compound 3455] ({CH2CO}-NY(Carboxymethyl)D[Phe(3-Me)]V[Bip][Cit][Orn][dL][Dab][Cha]V[Thr(3ξ)]C[Dab][Aun]-OH; thioether N-14), for which the IC50 was determined as 14.6 nM.

With `Cc1cccc(C[C@@H]2NC(=O)[C@H](CC(=O)O)NC(=O)[C@H](Cc3ccc(OCC(=O)O)cc3)NC(=O)[C@H](C(C)O)NC(=O)CSC[C@@H](C(=O)N[C@@H](CCN)C(=O)NCCCCCCCCCCC(=O)O)NC(=O)[C@H](C(C)O)NC(=O)[C@H](C(C)C)NC(=O)[C@H](CC3CCCCC3)NC(=O)[C@H](CCN)NC(=O)[C@@H](CC(C)C)NC(=O)[C@H](CCCN)NC(=O)[C@H](Cc3ccc(O)cc3)NC(=O)[C@H](Cc3ccc(-c4ccccc4)cc3)NC(=O)[C@H](Cc3ccc(O)cc3)NC2=O)c1` (stereo partly drawn) [Compound 3456] ({CH2CO}-[Thr(3ξ)]Y(Carboxymethyl)D[Phe(3-Me)]Y[Bip]Y[Orn][dL][Dab][Cha]V[Thr(3ξ)]C[Dab][Aun]-OH; thioether N-14), the IC50 came out at 26.4 nM.
